From ChEMBL document CHEMBL3091298, “Bis-phosphonium salts of pyridoxine: the relationship between structure and antibacterial activity” (Bioorg Med Chem, 2013)
In brackets after ≈: the same amount, converted by molar mass.

Key:
[1] = Genotoxicity in polA-deficient Escherichia coli assessed as survival at 10 ug/ml after 6 hrs by DNA-repair test; format: toxicity, organism-based; conditions: read-out: Survival
[2] = Genotoxicity in recA-deficient Escherichia coli assessed as survival at 1 ug/ml after 6 hrs by DNA-repair test; format: toxicity, organism-based; conditions: read-out: Survival
[3] = Genotoxicity in uvrA-deficient Escherichia coli assessed as survival at 10 ug/ml after 6 hrs by DNA-repair test; format: toxicity, organism-based; conditions: read-out: Survival
[4] = test system: Salmonella typhimurium; test: Mutagenic activity in Salmonella typhimurium TA100 assessed as increase in number of revertants at 100 ug/ml by Ames test relative to solvent control; format: toxicity, organism-based; conditions: salmonella enterica subsp. enterica serovar typhimurium
[5] = Genotoxicity in recA-deficient Escherichia coli assessed as survival at 100 ug/ml after 6 hrs by DNA-repair test; format: toxicity, organism-based; conditions: read-out: Survival
[6] = test system: HEK293; test: (§1) Cytotoxicity against HEK293 cells after 72 hrs by MTT assay; format: cell-based; conditions: human, hek293, 72 h
[7] = Genotoxicity in polA-deficient Escherichia coli assessed as survival at 100 ug/ml after 6 hrs by DNA-repair test; format: toxicity, organism-based; conditions: read-out: Survival
[8] = test system: Proteus sp.; test: Antibacterial activity against Proteus sp. after 18 to 24 hrs; format: functional; conditions: Proteus sp. (in: enterobacteria)
[9] = test system: Staphylococcus aureus; test: Antibacterial activity against Staphylococcus aureus after 18 to 24 hrs; format: functional
[10] = Genotoxicity in uvrA-deficient Escherichia coli assessed as survival at 1 ug/ml after 6 hrs by DNA-repair test; format: toxicity, organism-based; conditions: read-out: Survival
[11] = test system: Salmonella typhimurium; test: Mutagenic activity in Salmonella typhimurium TA100 assessed as increase in number of revertants at 1 ug/ml by Ames test relative to solvent control; format: toxicity, organism-based; conditions: salmonella enterica subsp. enterica serovar typhimurium
[12] = Genotoxicity in recA-deficient Escherichia coli assessed as survival at 10 ug/ml after 6 hrs by DNA-repair test; format: toxicity, organism-based; conditions: read-out: Survival
[13] = test system: Staphylococcus epidermidis; test: Antibacterial activity against Staphylococcus epidermidis after 18 to 24 hrs; format: functional
[14] = Genotoxicity in polA-deficient Escherichia coli assessed as survival at 1 ug/ml after 6 hrs by DNA-repair test; format: toxicity, organism-based; conditions: read-out: Survival
[15] = test system: Salmonella typhimurium; test: Mutagenic activity in Salmonella typhimurium TA100 assessed as increase in number of revertants at 10 ug/ml by Ames test relative to solvent control; format: toxicity, organism-based; conditions: salmonella enterica subsp. enterica serovar typhimurium
[16] = Genotoxicity in uvrA-deficient Escherichia coli assessed as survival at 100 ug/ml after 6 hrs by DNA-repair test; format: toxicity, organism-based; conditions: read-out: Survival
[17] = test system: Klebsiella pneumoniae; test: Antibacterial activity against Klebsiella pneumoniae after 18 to 24 hrs; format: functional
[18] = as §1; format: cell-based; conditions: human, HEK293 cells

SMILES | MIC [8] | MIC [9] | MIC [13] | MIC [17] | CC50 at 72 h [18] | also measured
Cc1nc(C[P+](c2ccccc2)(c2ccccc2)c2ccccc2)c(C[P+](c2ccccc2)(c2ccccc2)c2ccccc2)c2c1OC(C)(C)OC2.[Cl-].[Cl-] | > 1000 µg/mL | 5 µg/mL | 5 µg/mL | > 1000 µg/mL | – | viability at 6 h, 10 ug/ml [1]: 112%; viability at 6 h, 1 ug/ml [2]: 88.8%; viability at 6 h, 10 ug/ml [3]: 114%; Ratio [4]: 0.85; viability at 6 h, 100 ug/ml [5]: 70.1%; CC50 [6]: 72 µg/mL; viability at 6 h, 100 ug/ml [7]: 59.4%; viability at 6 h, 1 ug/ml [10]: 103%; Ratio [11]: 0.76; viability at 6 h, 10 ug/ml [12]: 79.3%; viability at 6 h, 1 ug/ml [14]: 114%; Ratio [15]: 0.88; viability at 6 h, 100 ug/ml [16]: 68.9%
Cc1nc(C[P+](c2ccccc2)(c2ccccc2)c2ccccc2)c(C[P+](c2ccccc2)(c2ccccc2)c2ccccc2)c2c1OC(C)(C)OC2.[Br-].[Br-] | > 1000 µg/mL | 1.25 µg/mL | 2.5 µg/mL | > 1000 µg/mL | – | CC50 [6]: 27.5 µg/mL
Cc1nc(C[P+](c2ccccc2)(c2ccccc2)c2ccccc2)c(C[P+](c2ccccc2)(c2ccccc2)c2ccccc2)c2c1OC(C)(C)OC2.O=[N+]([O-])[O-].O=[N+]([O-])[O-] | > 1000 µg/mL | 100 µg/mL | 100 µg/mL | 1000 µg/mL | – | –
Cc1nc(C[P+](c2ccccc2)(c2ccccc2)c2ccccc2)c(C[P+](c2ccccc2)(c2ccccc2)c2ccccc2)c2c1OC(C)(C)OC2.[I-].[I-] | > 1000 µg/mL | 10 µg/mL | 10 µg/mL | > 1000 µg/mL | – | –
Cc1nc(C[P+](c2ccccc2)(c2ccccc2)c2ccccc2)c(CO)c2c1OC(C)(C)OC2.[Br-] | > 1000 µg/mL | 10 µg/mL | 10 µg/mL | > 1000 µg/mL | – | –
CCCC1OCc2c(C[P+](c3ccc(C)cc3)(c3ccc(C)cc3)c3ccc(C)cc3)c(C[P+](c3ccc(C)cc3)(c3ccc(C)cc3)c3ccc(C)cc3)nc(C)c2O1.[Cl-].[Cl-] (centres undefined) | 1000 µg/mL | 2.5 µg/mL | 2.5 µg/mL | 1000 µg/mL | 1 µg/mL | –
CCC1OCc2c(C[P+](c3ccccc3)(c3ccccc3)c3ccccc3)c(C[P+](c3ccccc3)(c3ccccc3)c3ccccc3)nc(C)c2O1.[Cl-].[Cl-] (centres undefined) | > 1000 µg/mL | 10 µg/mL | 10 µg/mL | > 1000 µg/mL | 4 µg/mL | –
CCCC1OCc2c(C[P+](c3ccccc3)(c3ccccc3)c3ccccc3)c(C[P+](c3ccccc3)(c3ccccc3)c3ccccc3)nc(C)c2O1.[Cl-].[Cl-] (centres undefined) | > 1000 µg/mL | 1 µg/mL | 1 µg/mL | > 1000 µg/mL | 3 µg/mL | viability at 6 h, 10 ug/ml [1]: 108%; viability at 6 h, 1 ug/ml [2]: 87.8%; viability at 6 h, 10 ug/ml [3]: 116%; Ratio [4]: 1.08; viability at 6 h, 100 ug/ml [5]: 80.4%; viability at 6 h, 100 ug/ml [7]: 57.7%; viability at 6 h, 1 ug/ml [10]: 113%; Ratio [11]: 0.91; viability at 6 h, 10 ug/ml [12]: 83.1%; viability at 6 h, 1 ug/ml [14]: 110%; Ratio [15]: 1.12; viability at 6 h, 100 ug/ml [16]: 64.4%
Cc1nc(C[P+](c2ccccc2)(c2ccccc2)c2ccccc2)c(C[P+](c2ccccc2)(c2ccccc2)c2ccccc2)c2c1OC(C(C)C)OC2.[Cl-].[Cl-] (centres undefined) | > 1000 µg/mL | 10 µg/mL | 5 µg/mL | > 1000 µg/mL | 2.57 µg/mL | –
CCCCC1OCc2c(C[P+](c3ccccc3)(c3ccccc3)c3ccccc3)c(C[P+](c3ccccc3)(c3ccccc3)c3ccccc3)nc(C)c2O1.[Cl-].[Cl-] (centres undefined) | > 1000 µg/mL | 5 µg/mL | 10 µg/mL | 1000 µg/mL | 2 µg/mL | –
CCCCCC1OCc2c(C[P+](c3ccccc3)(c3ccccc3)c3ccccc3)c(C[P+](c3ccccc3)(c3ccccc3)c3ccccc3)nc(C)c2O1.[Cl-].[Cl-] (centres undefined) | > 1000 µg/mL | 5 µg/mL | 5 µg/mL | 1000 µg/mL | 1 µg/mL | –
CCCCCCCC1OCc2c(C[P+](c3ccccc3)(c3ccccc3)c3ccccc3)c(C[P+](c3ccccc3)(c3ccccc3)c3ccccc3)nc(C)c2O1.[Cl-].[Cl-] (centres undefined) | > 1000 µg/mL | 10 µg/mL | 10 µg/mL | 1000 µg/mL | 0.5 µg/mL | –
Cc1nc(C[P+](c2ccccc2)(c2ccccc2)c2ccccc2)c(C[P+](c2ccccc2)(c2ccccc2)c2ccccc2)c2c1OC(C)OC2.[Cl-].[Cl-] (centres undefined) | > 1000 µg/mL | 12.5 µg/mL | 10 µg/mL | > 1000 µg/mL | 33.9 µg/mL | –
CCCC[P+](CCCC)(CCCC)Cc1nc(C)c2c(c1C[P+](CCCC)(CCCC)CCCC)COC(C)(C)O2.[Cl-].[Cl-] | > 1000 µg/mL | 1.25 µg/mL | 1.25 µg/mL | > 1000 µg/mL | 200 µg/mL | viability at 6 h, 10 ug/ml [1]: 118%; viability at 6 h, 1 ug/ml [2]: 88.6%; viability at 6 h, 10 ug/ml [3]: 115%; Ratio [4]: 1.04; viability at 6 h, 100 ug/ml [5]: 77.8%; viability at 6 h, 100 ug/ml [7]: 57.8%; viability at 6 h, 1 ug/ml [10]: 109%; Ratio [11]: 0.82; viability at 6 h, 10 ug/ml [12]: 82.9%; viability at 6 h, 1 ug/ml [14]: 112%; Ratio [15]: 1.21; viability at 6 h, 100 ug/ml [16]: 66.1%
Cc1ccc([P+](Cc2nc(C)c3c(c2C[P+](c2ccc(C)cc2)(c2ccc(C)cc2)c2ccc(C)cc2)COC(C)(C)O3)(c2ccc(C)cc2)c2ccc(C)cc2)cc1.[Cl-].[Cl-] | > 1000 µg/mL | 1 µg/mL | 1 µg/mL | > 1000 µg/mL | 29.5 µg/mL | –
Cc1cccc([P+](Cc2nc(C)c3c(c2C[P+](c2cccc(C)c2)(c2cccc(C)c2)c2cccc(C)c2)COC(C)(C)O3)(c2cccc(C)c2)c2cccc(C)c2)c1.[Cl-].[Cl-] | > 1000 µg/mL | 1.25 µg/mL | 1.25 µg/mL | 1000 µg/mL | 13 µg/mL | –
Cc1nc(C[P+](c2cccs2)(c2cccs2)c2cccs2)c(C[P+](c2cccs2)(c2cccs2)c2cccs2)c2c1OC(C)(C)OC2.[Cl-].[Cl-] | > 1000 µg/mL | 100 µg/mL | 100 µg/mL | > 1000 µg/mL | – | –
Cc1nc(C[P+](c2ccc(F)cc2)(c2ccc(F)cc2)c2ccc(F)cc2)c(C[P+](c2ccc(F)cc2)(c2ccc(F)cc2)c2ccc(F)cc2)c2c1OC(C)(C)OC2.[Cl-].[Cl-] | > 1000 µg/mL | 50 µg/mL | 50 µg/mL | > 1000 µg/mL | – | –
Cc1nc2c(c3c1OC(C)(C)OC3)C[P+](c1ccccc1)(c1ccccc1)CC[P+](c1ccccc1)(c1ccccc1)C2.[Cl-].[Cl-] | > 1000 µg/mL | 125 µg/mL | 100 µg/mL | > 1000 µg/mL | – | –
CCCC[P+](CCCC)(CCCC)Cc1nc(C)c(O)c(CO)c1C[P+](CCCC)(CCCC)CCCC.Cl.[Cl-].[Cl-] | > 1000 µg/mL | 1000 µg/mL | 1000 µg/mL | > 1000 µg/mL | – | –
Cc1ccc([P+](Cc2nc(C)c(O)c(CO)c2C[P+](c2ccc(C)cc2)(c2ccc(C)cc2)c2ccc(C)cc2)(c2ccc(C)cc2)c2ccc(C)cc2)cc1.Cl.[Cl-].[Cl-] | > 1000 µg/mL | > 1000 µg/mL | > 1000 µg/mL | > 1000 µg/mL | – | –
Cc1cccc([P+](Cc2nc(C)c(O)c(CO)c2C[P+](c2cccc(C)c2)(c2cccc(C)c2)c2cccc(C)c2)(c2cccc(C)c2)c2cccc(C)c2)c1.Cl.[Cl-].[Cl-] | > 1000 µg/mL | 12.5 µg/mL | 12.5 µg/mL | > 1000 µg/mL | – | –
Cc1nc(C[P+](c2cccs2)(c2cccs2)c2cccs2)c(C[P+](c2cccs2)(c2cccs2)c2cccs2)c(CO)c1O.Cl.[Cl-].[Cl-] | > 1000 µg/mL | 1000 µg/mL | > 1000 µg/mL | > 1000 µg/mL | – | –
Cc1nc(C[P+](c2ccc(F)cc2)(c2ccc(F)cc2)c2ccc(F)cc2)c(C[P+](c2ccc(F)cc2)(c2ccc(F)cc2)c2ccc(F)cc2)c(CO)c1O.Cl.[Cl-].[Cl-] | > 1000 µg/mL | 1000 µg/mL | 1000 µg/mL | > 1000 µg/mL | – | –
Cc1nc2c(c(CO)c1O)C[P+](c1ccccc1)(c1ccccc1)CC[P+](c1ccccc1)(c1ccccc1)C2.Cl.[Cl-].[Cl-] | > 1000 µg/mL | 500 µg/mL | 500 µg/mL | > 1000 µg/mL | – | –
CN[C@H](CC(C)C)C(=O)N[C@H]1C(=O)N[C@@H](CC(N)=O)C(=O)N[C@H]2C(=O)N[C@H]3C(=O)N[C@H](C(=O)N[C@H](C(=O)O)c4cc(O)cc(O)c4-c4cc3ccc4O)[C@H](O)c3ccc(c(Cl)c3)Oc3cc2cc(c3O[C@@H]2O[C@H](CO)[C@@H](O)[C@H](O)[C@H]2O[C@H]2C[C@](C)(N)[C@H](O)[C@H](C)O2)Oc2ccc(cc2Cl)[C@H]1O [VANCOMYCIN] | > 1000 µg/mL | 2.5 µg/mL (≈ 1.73 µM) | 2.5 µg/mL (≈ 1.73 µM) | > 1000 µg/mL | > 1000 µg/mL | –
